Results: US20260262643A1, “HERBICIDAL BENZOXAZINES” (FMC CORPORATION, priority 2022, published 2026)

Key:
blackgrass [1] = experiment: Test A preemergence; type: in vivo, Alopecurus myosuroides
How it was run: (§1)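 Weeds and crops in loam–sand blend were sprayed preemergence onto soil or postemergence at 2–10 cm (one- to two-leaf stage). Test chemicals were in a non-phytotoxic solvent with surfactant. After 10 days in the greenhouse, injury was rated visually against untreated controls on a 0 (no effect) to 100 (complete control) scale.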

corn [2] = experiment: Test A preemergence; type: in vivo, Zea mays
How it was run: as §1

foxtail, giant [3] = experiment: Test A preemergence; type: in vivo, Setaria faberi
How it was run: as §1

goosegrass [4] = experiment: Test A preemergence; type: in vivo, Eleusine indica
How it was run: as §1

kochia [5] = experiment: Test A preemergence; type: in vivo, Bassia scoparia
How it was run: as §1

oat, wild [6] = experiment: Test A preemergence; type: in vivo, Avena fatua
How it was run: as §1

pigweed, palmer [7] = experiment: Test A preemergence; type: in vivo, Amaranthus palmeri
How it was run: as §1

ragweed [8] = experiment: Test A preemergence; type: in vivo, Ambrosia artemisiifolia
How it was run: as §1

ryegrass, Italian [9] = experiment: Test A preemergence; type: in vivo, Lolium multiflorum
How it was run: as §1

soybean [10] = experiment: Test A preemergence; type: in vivo, Glycine max
How it was run: as §1

wheat [11] = experiment: Test A preemergence; type: in vivo, Triticum aestivum
How it was run: as §1

blackgrass [12] = experiment: Test A postemergence; type: in vivo, Alopecurus myosuroides
How it was run: as §1

corn [13] = experiment: Test A postemergence; type: in vivo, Zea mays
How it was run: as §1

foxtail, giant [14] = experiment: Test A postemergence; type: in vivo, Setaria faberi
How it was run: as §1

goosegrass [15] = experiment: Test A postemergence; type: in vivo, Eleusine indica
How it was run: as §1

kochia [16] = experiment: Test A postemergence; type: in vivo, Bassia scoparia
How it was run: as §1

oat, wild [17] = experiment: Test A postemergence; type: in vivo, Avena fatua
How it was run: as §1

pigweed, palmer [18] = experiment: Test A postemergence; type: in vivo, Amaranthus palmeri
How it was run: as §1

ragweed [19] = experiment: Test A postemergence; type: in vivo, Ambrosia artemisiifolia
How it was run: as §1

ryegrass, Italian [20] = experiment: Test A postemergence; type: in vivo, Lolium multiflorum
How it was run: as §1

soybean [21] = experiment: Test A postemergence; type: in vivo, Glycine max
How it was run: as §1

wheat [22] = experiment: Test A postemergence; type: in vivo, Triticum aestivum
How it was run: as §1

galium = experiment: Test A postemergence; type: in vivo, Galium aparine
How it was run: as §1

horseweed = experiment: Test A postemergence; type: in vivo, Erigeron canadensis
How it was run: as §1

barnyardgrass = experiment: Test B flooded paddy test; type: in vivo, Echinochloa crus-galli; settings: 250 g ai/ha, Flood, 13 days, 0 to 100 scale (0 no effect, 100 complete control)
How it was run: (§2)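 Two-leaf plants, 3 cm flood, in-water application, 13-day greenhouse hold, visual 0–100 rating vs untreated checks.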

ducksalad = experiment: Test B flooded paddy test; type: in vivo, Heteranthera limosa; settings: 250 g ai/ha, Flood, 13 days, 0 to 100 scale (0 no effect, 100 complete control)
How it was run: as §2

rice = experiment: Test B flooded paddy test; type: in vivo, Oryza sativa; settings: 250 g ai/ha, Flood, 13 days, 0 to 100 scale (0 no effect, 100 complete control)
How it was run: as §2

sedge, umbrella = experiment: Test B flooded paddy test; type: in vivo, Cyperus difformis; settings: 250 g ai/ha, Flood, 13 days, 0 to 100 scale (0 no effect, 100 complete control)
How it was run: as §2

[23] = 125 g ai/ha, visual injury after 10 days, 0 to 100 scale, 0 is no effect, 100 is complete control
[24] = 500 g ai/ha, 0 to 100 scale (0 no effect, 100 complete control), 10 days
[25] = 125 g ai/ha, postemergence, 10 days, visual injury, 0 to 100 scale (0 no effect, 100 complete control)
[26] = 500 g ai/ha, Postemergence, 0 to 100 scale
[27] = 500 g ai/ha, postemergence, 10 days, visual injury, 0 to 100 scale (0 no effect, 100 complete control)

Compound: CCCc1ncn(-c2cccc(C(=O)N3C[C@H](C)Oc4c(C)cccc43)c2)n1 [Compound 72]
- Plant response rating, Blackgrass (blackgrass [1]; [23]): 40
- Plant response rating, Blackgrass (blackgrass [1]; [24]): 70
- Plant response rating, Corn (corn [2]; [23]): 30
- Plant response rating, Corn (corn [2]; [24]): 50
- Plant response rating, Foxtail, Giant (foxtail, giant [3]; [23]): 100
- Plant response rating, Foxtail, Giant (foxtail, giant [3]; [24]): 100
- Plant response rating, Goosegrass (goosegrass [4]; [23]): 90
- Plant response rating, Goosegrass (goosegrass [4]; [24]): 100
- Plant response rating, Kochia (kochia [5]; [23]): 30
- Plant response rating, Kochia (kochia [5]; [24]): 80
- Plant response rating, Oat, Wild (oat, wild [6]; [23]): 10
- Plant response rating, Oat, Wild (oat, wild [6]; [24]): 90
- Plant response rating, Pigweed, Palmer (pigweed, palmer [7]; [23]): 70
- Plant response rating, Pigweed, Palmer (pigweed, palmer [7]; [24]): 100
- Plant response rating, Ragweed (ragweed [8]; [23]): 0
- Plant response rating, Ragweed (ragweed [8]; [24]): 0
- Plant response rating, Ryegrass, Italian (ryegrass, Italian [9]; [23]): 100
- Plant response rating, Ryegrass, Italian (ryegrass, Italian [9]; [24]): 100
- Plant response rating, Soybean (soybean [10]; [23]): 30
- Plant response rating, Soybean (soybean [10]; [24]): 60
- Plant response rating, Wheat (wheat [11]; [23]): 0
- Plant response rating, Wheat (wheat [11]; [24]): 30
- Plant response rating, Blackgrass (blackgrass [12]; [25]): 0
- Plant response rating, Blackgrass (blackgrass [12]; [26]): 80
- Plant response rating, Corn (corn [13]; [25]): 30
- Plant response rating, Corn (corn [13]; [27]): 90
- Plant response rating, Foxtail, Giant (foxtail, giant [14]; [25]): 10
- Plant response rating, Foxtail, Giant (foxtail, giant [14]; [27]): 50
- Plant response rating, Goosegrass (goosegrass [15]; [25]): 50
- Plant response rating, Goosegrass (goosegrass [15]; [27]): 90
- Plant response rating, Kochia (kochia [16]; [25]): 70
- Plant response rating, Kochia (kochia [16]; [27]): 90
- Plant response rating, Oat, Wild (oat, wild [17]; [27]): 50
- Plant response rating, Pigweed, Palmer (pigweed, palmer [18]; [27]): 70
- Plant response rating, Ragweed (ragweed [19]; [27]): 50
- Plant response rating, Ryegrass, Italian (ryegrass, Italian [20]; [27]): 70
- Plant response rating, Soybean (soybean [21]; [27]): 100
- Plant response rating, Wheat (wheat [22]; [27]): 30
- Plant response rating, Galium (galium; [25]): 70
- Plant response rating, Galium (galium; [27]): 100
- Plant response rating, Horseweed (horseweed; [25]): 20
- Plant response rating, Horseweed (horseweed; [27]): 50
- Plant response rating, Barnyardgrass (barnyardgrass): 15
- Plant response rating, Ducksalad (ducksalad): 55
- Plant response rating, Rice (rice): 0
- Plant response rating, Sedge, Umbrella (sedge, umbrella): 15

Compound: Cc1ccc(-n2cncn2)cc1C(=O)N1C[C@H](C)Oc2c(C)cccc21 [Compound 57]
- Plant response rating, Blackgrass (blackgrass [1]; [23]): 60
- Plant response rating, Blackgrass (blackgrass [1]; [24]): 90
- Plant response rating, Corn (corn [2]; [23]): 0
- Plant response rating, Corn (corn [2]; [24]): 40
- Plant response rating, Foxtail, Giant (foxtail, giant [3]; [23]): 100
- Plant response rating, Foxtail, Giant (foxtail, giant [3]; [24]): 100
- Plant response rating, Goosegrass (goosegrass [4]; [23]): 90
- Plant response rating, Goosegrass (goosegrass [4]; [24]): 100
- Plant response rating, Kochia (kochia [5]; [23]): 40
- Plant response rating, Kochia (kochia [5]; [24]): 30
- Plant response rating, Oat, Wild (oat, wild [6]; [23]): 50
- Plant response rating, Oat, Wild (oat, wild [6]; [24]): 90
- Plant response rating, Pigweed, Palmer (pigweed, palmer [7]; [23]): 30
- Plant response rating, Pigweed, Palmer (pigweed, palmer [7]; [24]): 100
- Plant response rating, Ragweed (ragweed [8]; [23]): 0
- Plant response rating, Ragweed (ragweed [8]; [24]): 50
- Plant response rating, Ryegrass, Italian (ryegrass, Italian [9]; [23]): 80
- Plant response rating, Ryegrass, Italian (ryegrass, Italian [9]; [24]): 100
- Plant response rating, Soybean (soybean [10]; [23]): 100
- Plant response rating, Soybean (soybean [10]; [24]): 100
- Plant response rating, Wheat (wheat [11]; [23]): 20
- Plant response rating, Wheat (wheat [11]; [24]): 80
- Plant response rating, Blackgrass (blackgrass [12]; [25]): 50
- Plant response rating, Blackgrass (blackgrass [12]; [26]): 80
- Plant response rating, Corn (corn [13]; [25]): 70
- Plant response rating, Corn (corn [13]; [26]): 80
- Plant response rating, Foxtail, Giant (foxtail, giant [14]; [25]): 90
- Plant response rating, Foxtail, Giant (foxtail, giant [14]; [26]): 90
- Plant response rating, Goosegrass (goosegrass [15]; [25]): 40
- Plant response rating, Goosegrass (goosegrass [15]; [26]): 90
- Plant response rating, Kochia (kochia [16]; [25]): 10
- Plant response rating, Kochia (kochia [16]; [26]): 30
- Plant response rating, Oat, Wild (oat, wild [17]; [25]): 80
- Plant response rating, Oat, Wild (oat, wild [17]; [26]): 90
- Plant response rating, Pigweed, Palmer (pigweed, palmer [18]; [25]): 20
- Plant response rating, Pigweed, Palmer (pigweed, palmer [18]; [26]): 50
- Plant response rating, Ragweed (ragweed [19]; [25]): 30
- Plant response rating, Ragweed (ragweed [19]; [26]): 50
- Plant response rating, Ryegrass, Italian (ryegrass, Italian [20]; [25]): 70
- Plant response rating, Ryegrass, Italian (ryegrass, Italian [20]; [26]): 100
- Plant response rating, Soybean (soybean [21]; [25]): 100
- Plant response rating, Soybean (soybean [21]; [26]): 100
- Plant response rating, Wheat (wheat [22]; [25]): 70
- Plant response rating, Wheat (wheat [22]; [26]): 90
- Plant response rating, Galium (galium; [25]): 80
- Plant response rating, Galium (galium; [26]): 100
- Plant response rating, Horseweed (horseweed; [25]): 0
- Plant response rating, Horseweed (horseweed; [26]): 20
- Plant response rating, Barnyardgrass (barnyardgrass): 15
- Plant response rating, Ducksalad (ducksalad): 65
- Plant response rating, Rice (rice): 0
- Plant response rating, Sedge, Umbrella (sedge, umbrella): 90
